biological target: 229E Mpro (Human coronavirus 229E (HCoV-229E), UniProt P0C6X1); test: 229E Mpro activity; format: biochemical; details: read-out: 229E Mpro EC50
Sequence (P0C6X1 2966-3267 limits assumed): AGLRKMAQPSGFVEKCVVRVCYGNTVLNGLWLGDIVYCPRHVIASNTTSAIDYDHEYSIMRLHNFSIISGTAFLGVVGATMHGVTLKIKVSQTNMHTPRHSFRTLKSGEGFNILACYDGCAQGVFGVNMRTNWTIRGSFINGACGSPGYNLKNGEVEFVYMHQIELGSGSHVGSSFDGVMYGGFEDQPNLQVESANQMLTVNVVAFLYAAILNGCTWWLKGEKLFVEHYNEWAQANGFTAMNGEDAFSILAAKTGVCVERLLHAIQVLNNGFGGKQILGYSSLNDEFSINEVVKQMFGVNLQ
Method: Compounds are assayed using standard methods to assess compound activity and IC50. […] The assay buffer contains 20 mM of Tris-HCl (pH 7.3), 100 mM of NaCl, 1 mM of EDTA, 5mM of TCEP and 0.1% BSA.

Row | Compound | EC50
1 | COc1cccc2[nH]c(C(=O)N[C@@H](CC(C)(C)F)C(=O)N[C@H](C#N)C[C@@H]3CCCNC3=O)cc12 [Compound 667, N-[(1S)-1-[[(1S)-1-cyano-2-[(3S)-2-oxo-3-piperidyl]ethyl]carbamoyl]-3-fluoro-3-methyl-butyl]-4-methoxy-1H-indole-2-carboxamide] | < 2000 nM
2 | COc1cccc2[nH]c(C(=O)N[C@@H](CC3CC3)C(=O)N[C@H](C#N)C[C@@H]3CCCNC3=O)cc12 (single isomer, unassigned) [491 (Isomer 1)] | < 2000 nM
3 | COc1cccc2[nH]c(C(=O)N[C@@H](CC3CC3)C(=O)N[C@@H](C#N)C[C@@H]3CCCNC3=O)cc12 [Compound 491B] | 10000 to 30000 nM
4 | COc1cccc2[nH]c(C(=O)N3C[C@H](C(F)(F)F)C[C@H]3C(=O)N[C@H](C#N)C[C@@H]3CCNC3=O)cc12 [Compound 549, (2S,4R)-N-[(1S)-1-cyano-2-[(3S)-2-oxopyrrolidin-3-yl]ethyl]-1-(4-methoxy-1H-indole-2-carbonyl)-4-(trifluoromethyl)pyrrolidine-2-carboxamide] | < 2000 nM
5 | N#C[C@H](C[C@@H]1CCNC1=O)NC(=O)[C@@H](CC1CC1)n1cccc(NCC(F)(F)F)c1=O (single isomer, unassigned) [467 (Isomer 1)] | 2000 to 10000 nM
6 | N#C[C@H](C[C@@H]1CCCNC1=O)NC(=O)[C@H](CC1CC1)NC(=O)c1cc(Cl)c(Cl)[nH]1 [Compound 866, 4,5-dichloro-N-[(1S)-2-[[(1S)-1-cyano-2-[(3S)-2-oxo-3-piperidyl]ethyl]amino]-1-(cyclopropylmethyl)-2-oxo-ethyl]-1H-pyrrole-2-carboxamide] | < 2000 nM
7 | COc1nccc2[nH]c(C(=O)N[C@@H](CC3CC3)C(=O)N[C@H](C#N)C[C@@H]3CCCNC3=O)cc12 [Compound 623, N-[(1S)-2-[[(1S)-1-cyano-2-[(3S)-2-oxo-3-piperidyl]ethyl]amino]-1-(cyclopropylmethyl)-2-oxo-ethyl]-4-methoxy-1H-pyrrolo[3,2-c]pyridine-2-carboxamide] | > 30000 nM
8 | N#C[C@H](C[C@@H]1CCCNC1=O)NC(=O)[C@H](CC1CC1)NC(=O)c1cc2cc(Cl)cc(Cl)c2[nH]1 [Compound 842, 5,7-dichloro-N-[(1S)-2-[[(1S)-1-cyano-2-[(3S)-2-oxo-3-piperidyl]ethyl]amino]-1-(cyclopropylmethyl)-2-oxo-ethyl]-1H-indole-2-carboxamide] | < 2000 nM
9 | COc1cccc2[nH]c(C(=O)N[C@@H](CC(C)C)C(=O)N[C@@H](C[C@@H]3CCNC3=O)C(C#N)Nc3ccccc3)cc12 (stereo partly drawn) [Compound 327, N-[(1S)-1-[[(1S)-2-anilino-2-cyano-1-[[(3S)-2-oxopyrrolidin-3-yl]methyl]ethyl]carbamoyl]-3-methyl-butyl]-4-methoxy-1H-indole-2-carboxamide] | < 2000 nM
10 | COc1cccc2[nH]c(C(=O)N[C@@H](CC(C)C)C(=O)N[C@@H](C[C@@H]3CCNC3=O)C(C#N)NC(C)(C)C)cc12 (single isomer, unassigned) [323 (Isomer 2)] | < 2000 nM
11 | COc1cccc2[nH]c(C(=O)N[C@@H](CC3CC3)C(=O)NC(C#N)CN3CCNC3=O)cc12 (mixture of isomers) [Compound 493, N-[(1S)-2-[[1-cyano-2-(2-oxoimidazolidin-1-yl)ethyl]amino]-1-(cyclopropylmethyl)-2-oxo-ethyl]-4-methoxy-1H-indole-2-carboxamide] | > 30000 nM
12 | COc1cccc2[nH]c(C(=O)N[C@@H](CC(C)C)C(=O)N[C@@H](C[C@@H]3CCNC3=O)C(=O)CO)cc12 [Compound 741, N-[(1S)-1-[[(1S)-3-hydroxy-2-oxo-1-[[(3S)-2-oxopyrrolidin-3-yl]methyl]propyl]carbamoyl]-3-methyl-butyl]-4-methoxy-1H-indole-2-carboxamide] | < 2000 nM
13 | CCO[C@@H]1C[C@@H](C(=O)N[C@H](C#N)C[C@@H]2CCNC2=O)N(C(=O)c2cc3c(OC)cccc3[nH]2)C1 [Compound 535] | > 30000 nM
14 | CC(C)(C)C[C@H](NC(=O)c1cc2c(Cl)cccc2[nH]1)C(=O)N[C@H](C#N)C[C@@H]1CCCNC1=O [Compound 793, 4-chloro-N-[(1S)-1-[[(1S)-1-cyano-2-[(3S)-2-oxo-3-piperidyl]ethyl]carbamoyl]-3,3-dimethyl-butyl]-1H-indole-2-carboxamide] | < 2000 nM
15 | N#C[C@H](C[C@@H]1CCCNC1=O)NC(=O)[C@H](CC1CC1)NC(=O)c1cc2c(Cl)cc(F)cc2[nH]1 [Compound 824, 4-chloro-N-[(1S)-2-[[(1S)-1-cyano-2-[(3S)-2-oxo-3-piperidyl]ethyl]amino]-1-(cyclopropylmethyl)-2-oxo-ethyl]-6-fluoro-1H-indole-2-carboxamide] | < 2000 nM
16 | N#Cc1ccc2cc(C(=O)N[C@@H](CC3CC3)C(=O)N[C@H](C#N)C[C@@H]3CCCNC3=O)[nH]c2c1 [Compound 862, 6-cyano-N-[(1S)-2-[[(1S)-1-cyano-2-[(3S)-2-oxo-3-piperidyl]ethyl]amino]-1-(cyclopropylmethyl)-2-oxo-ethyl]-1H-indole-2-carboxamide] | < 2000 nM
17 | COc1cccc2[nH]c(C(=O)N3C[C@H](c4ccccc4)C[C@H]3C(=O)N[C@@H](C[C@@H]3CCNC3=O)C(O)C#N)cc12 (single isomer, unassigned) [345 (Isomer 1)] | < 2000 nM
18 | COc1cc(Cl)c2[nH]c(C(=O)N[C@@H](CC3CC3)C(=O)N[C@H](C#N)C[C@@H]3CCNC3=O)cc2c1 [Compound 695, 7-chloro-N-[(1S)-2-[[(1S)-1-cyano-2-[(3S)-2-oxopyrrolidin-3-yl]ethyl]amino]-1-(cyclopropylmethyl)-2-oxo-ethyl]-5-methoxy-1H-indole-2-carboxamide] | < 2000 nM

Row | Compound | EC50
19 | COc1ccc2[nH]c(C(=O)N[C@@H](CC3CC3)C(=O)N[C@H](C#N)C[C@@H]3CCCNC3=O)cc2c1 [Compound 619, N-[(1S)-2-[[(1S)-1-cyano-2-[(3S)-2-oxo-3-piperidyl]ethyl]amino]-1-(cyclopropylmethyl)-2-oxo-ethyl]-5-methoxy-1H-indole-2-carboxamide] | < 2000 nM
20 | CCNC(C#N)[C@H](C[C@@H]1CCNC1=O)NC(=O)[C@H](CC(C)C)NC(=O)c1cc2c(OC)cccc2[nH]1 (single isomer, unassigned) [511 (Isomer 1)] | < 2000 nM
21 | COc1cccc2[nH]c(C(=O)N3CC4(CCCC4)C[C@H]3C(=O)N[C@H](C#N)C[C@@H]3CCNC3=O)cc12 (single isomer, unassigned) [401 (Isomer 1)] | < 2000 nM
22 | N#C[C@H](C[C@@H]1CCCNC1=O)NC(=O)[C@H](CC1CC1)NC(=O)c1cc2ccc(F)c(Br)c2[nH]1 [Compound 850] | 10000 to 30000 nM
23 | COc1cccc2[nH]c(C(=O)N3CC(C45CC(C4)C5)C[C@H]3C(=O)N[C@H](C#N)C[C@@H]3CCNC3=O)cc12 (single isomer, unassigned) [385 (Isomer 1)] | < 2000 nM
24 | COc1cccc2[nH]c(C(=O)N[C@@H](CC(C)C)C(=O)N[C@H](/C=C/S(C)(=O)=O)C[C@@H]3CCNC3=O)cc12 [Compound 136, 4-methoxy-N-[(1S)-3-methyl-1-[[(E,1S)-3-methylsulfonyl-1-[[(3S)-2-oxopyrrolidin-3-yl]methyl]allyl]carbamoyl]butyl]-1H-indole-2-carboxamide] | < 2000 nM
25 | COc1ccc(Cl)c2[nH]c(C(=O)N[C@@H](CC3CC3)C(=O)N[C@H](C#N)C[C@@H]3CCCNC3=O)cc12 [Compound 898, 7-chloro-N-[(1S)-2-[[(1S)-1-cyano-2-[(3S)-2-oxo-3-piperidyl]ethyl]amino]-1-(cyclopropylmethyl)-2-oxo-ethyl]-4-methoxy-1H-indole-2-carboxamide] | < 2000 nM
26 | N#C[C@H](C[C@@H]1CCNC1=O)NC(=O)C1CC2(CCCCC2)CN1C(=O)c1cc2ccc(Cl)cc2[nH]1 (single isomer, unassigned) [878 (Isomer 2)] | 10000 to 30000 nM
27 | N#Cc1cccc2[nH]c(C(=O)N[C@@H](CC3CC3)C(=O)N[C@H](C#N)C[C@@H]3CCCNC3=O)cc12 [Compound 858] | < 2000 nM
28 | COCCOCCOc1cccc2[nH]c(C(=O)NC(CC(C)(C)C)C(=O)NC(C#N)CC3CCCNC3=O)cc12 (single isomer, unassigned) [875 (Isomer 3)] | 10000 to 30000 nM
29 | N#C[C@H](C[C@@H]1CCCNC1=O)NC(=O)[C@H](CC1CC1)NC(=O)c1cc2c(Cl)ccc(F)c2[nH]1 [Compound 826] | < 2000 nM
30 | COc1cc(Cl)c2[nH]c(C(=O)N[C@@H](CC3CC3)C(=O)N[C@H](C#N)C[C@@H]3CCCNC3=O)cc2c1 [Compound 900, 7-chloro-N-((S)-1-(((S)-1-cyano-2-((S)-2-oxopiperidin-3-yl)ethyl)amino)-3-cyclopropyl-1-oxopropan-2-yl)-5-methoxy-1H-indole-2-carboxamide] | < 2000 nM
31 | COc1cccc2[nH]c(C(=O)N[C@@H](CC(C)C)C(=O)N[C@@H](C[C@@H]3CCNC3=O)C(C#N)OC(=O)NC(C)C)cc12 (some centres unmarked) [Compound 583] | > 30000 nM
32 | COc1cccc2[nH]c(C(=O)N[C@H](C(=O)N[C@H](C#N)C[C@@H]3CCNC3=O)C3CC4CC4C3)cc12 (some centres unmarked) [Compound 499] | < 2000 nM
33 | CN1CCCC[C@]12CCN([C@H](CC1CC1)C(=O)N[C@H](C#N)C[C@@H]1CCNC1=O)C2=O [Compound 273A, (2R)-N-[(1S)-1-cyano-2-[(3S)-2-oxopyrrolidin-3-yl]ethyl]-3-cyclopropyl-2-[(5R)-6-methyl-1-oxo-2,6-diazaspiro[4.5]decan-2-yl]propanamide] | > 30000 nM
34 | N#C[C@H](C[C@@H]1CCNC1=O)NC(=O)[C@H](CC1CC1)N1CCc2cc[nH]c2C1=O [Compound 267, (2S)-N-[(1S)-1-cyano-2-[(3S)-2-oxopyrrolidin-3-yl]ethyl]-3-cyclopropyl-2-(7-oxo-4,5-dihydro-1H-pyrrolo[2,3-c]pyridin-6-yl)propanamide] | < 2000 nM
35 | N#C[C@H](C[C@@H]1CCCNC1=O)NC(=O)[C@H](CC1CC1)NC(=O)c1[nH]c2cc(Br)ccc2c1F [Compound 848, 6-bromo-N-[(1S)-2-[[(1S)-1-cyano-2-[(3S)-2-oxo-3-piperidyl]ethyl]amino]-1-(cyclopropylmethyl)-2-oxo-ethyl]-3-fluoro-1H-indole-2-carboxamide] | < 2000 nM

— patent US11524940B1, “Inhibitors of cysteine proteases and methods of use thereof” (priority 2020, dated 2022)
